Data: the NIST ThermoML archive (doi:10.1016/j.jct.2018.05.003)
± gives the expanded uncertainty stated by the source.

Experiment: not given
Conditions: Crystal; visual observation

Normal melting temperature [°C] | SMILES
95.4 ± 1.1 | O=C(C(=O)c1ccccc1)c1ccccc1 [1,2-diphenylethanedione]
159.6 ± 1.1 | O=C(O)c1ccccc1O [2-hydroxybenzoic acid]
167.0 ± 1.1 | O=C(O)c1cc([N+](=O)[O-])ccc1Cl [2-chloro-5-nitrobenzoic acid]
109.2 ± 0.9 | Cc1cccc(C(=O)O)c1 [3-methylbenzoic acid]
141.6 ± 0.9 | O=C(O)c1cccc([N+](=O)[O-])c1 [3-nitrobenzoic acid]
122.5 ± 0.9 | O=C(O)c1ccccc1 [benzoic acid]
183.2 ± 1.1 | O=C(O)c1ccc(Cl)c([N+](=O)[O-])c1 [4-chloro-3-nitrobenzoic acid]

SMILES | Normal melting temperature [°C]
c1ccc2c(c1)Nc1ccccc1S2 [10H-phenothiazine] | 184.8 ± 0.7
O=S(=O)(c1ccccc1)c1ccccc1 [diphenyl sulfone] | 125.1 ± 0.9

Experiment: activity coefficient (dimensionless); of the first substance listed, at infinite dilution; xn = mol fraction of the nth substance listed
Conditions: 298.15 K; 101.33 kPa; Liquid; Chromatography; x1 = 0

SMILES | activity coefficient
C1CCCCC1 [cyclohexane] + CCCCCOC(C)=O | 1.51 ± 0.05
C1CCOC1 [tetrahydrofuran] + CCCCCOC(C)=O | 0.8 ± 0.04
c1ccccc1 [benzene] + CCCCCOC(C)=O | 0.73 ± 0.03
CC#N [acetonitrile] + CCCCCOC(C)=O | 1.69 ± 0.05
CC(C)Br [2-bromopropane] + CCCCCOC(C)=O | 0.82 ± 0.03
CCCCCl [1-chlorobutane] + CCCCCOC(C)=O | 0.84 ± 0.03
Brc1ccccc1 [bromobenzene] + CCCCCOC(C)=O | 0.78 ± 0.05
Fc1ccccc1 [fluorobenzene] + CCCCCOC(C)=O | 0.61 ± 0.03
CC(C)O [propan-2-ol] + CCCCCOC(C)=O | 2.86 ± 0.11
CC(C)=O [acetone] + CCCCCOC(C)=O | 1.19 ± 0.05
C1COCCO1 [1,4-dioxane] + CCCCCOC(C)=O | 0.91 ± 0.03
Cc1ccccc1 [toluene] + CCCCCOC(C)=O | 0.86 ± 0.04
CC(Cl)CCl (stereo unspecified) [1,2-dichloropropane] + CCCCCOC(C)=O | 0.61 ± 0.03
ClC(Cl)Cl [trichloromethane] + CCCCCOC(C)=O | 0.27 ± 0.03
C[N+](=O)[O-] [nitromethane] + CCCCCOC(C)=O | 1.28 ± 0.05
C1=CCCCC1 [cyclohexene] + CCCCCOC(C)=O | 1.16 ± 0.03
Cc1ccc(C)cc1 [1,4-dimethylbenzene] + CCCCCOC(C)=O | 0.92 ± 0.03
Cc1cccc(C)c1 [1,3-dimethylbenzene] + CCCCCOC(C)=O | 0.9 ± 0.03

Results, then the compound that gave them:

activity coefficient | SMILES
1.22 ± 0.03 | C=CCCCC [hex-1-ene] + CCCCCOC(C)=O
1.02 ± 0.06 | CCCc1ccccc1 [propylbenzene] + CCCCCOC(C)=O
1.9 ± 0.1 | CCCCCCC [heptane] + CCCCCOC(C)=O
0.85 ± 0.03 | C#CCCCCCC [1-octyne] + CCCCCOC(C)=O
2.17 ± 0.14 | CCCCCCCCC [nonane] + CCCCCOC(C)=O
2.43 ± 0.11 | CCCO [propan-1-ol] + CCCCCOC(C)=O
0.98 ± 0.04 | CCc1ccccc1 [ethylbenzene] + CCCCCOC(C)=O
2.02 ± 0.09 | CCCCCCCC [octane] + CCCCCOC(C)=O
1.74 ± 0.1 | CCCCCC [hexane] + CCCCCOC(C)=O
1.14 ± 0.05 | C=CCCCCC=C [1,7-octadiene] + CCCCCOC(C)=O
2.5 ± 0.13 | CCCCCCCCCC [decane] + CCCCCOC(C)=O
1.35 ± 0.04 | C=CCCCCC [1-heptene] + CCCCCOC(C)=O
2.97 ± 0.12 | CCO [ethanol] + CCCCCOC(C)=O
0.96 ± 0.03 | CCOC(C)=O [ethyl acetate] + CCCCCOC(C)=O
